Tests used:
Assay type in all cases: in vivo
[1] = test system: Echinochloa oryzacola Vasing.; test: Test Example 1: herbicidal activity, application before weed generation in submerged conditions; conditions: Application herbicide amount 320 g/ha; Seventeenth Table
Outline: (§1)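 Pre-emergence application to water surface of submerged pots (4 cm depth, alluvial soil) on sowing day, with 2.5-leaf rice transplanted; emulsion diluted to g/ha rates. Grown in greenhouse at 25–30 °C; 0–5 herbicidal/crop-effect score after three weeks.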

Monochoria vaginalis = test: as above; conditions: Application herbicide amount 320 g/ha; Seventeenth Table
Outline: as §1

Scirpus juncoides = test: as above; conditions: Application herbicide amount 320 g/ha; Seventeenth Table
Outline: as §1

Abutilon theophrasti = test: Test Example 4: herbicidal effect by application to foliage (diluvial soil, plastic box); conditions: application to foliage, application herbicide amount 320 g/ha
Outline: (§2)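 Plants were grown in sterilized diluvial soil in a greenhouse at 25-30° C for 14 days, then sprayed on stems and leaves with water-diluted emulsion formulation at set rates in g/ha. Weed control and crop injury were scored 3 weeks after treatment on a 0-5 herbicidal-ratio scale, from 0 (≤5%) to 5 (≥90%).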

Alopecurus myosuroides = test: as above; conditions: application to foliage, application herbicide amount 320 g/ha
Outline: as §2

Apera spica-venti. = test: as above; conditions: application to foliage, application herbicide amount 320 g/ha
Outline: as §2

Avena fatua = test: as above; conditions: application to foliage, application herbicide amount 320 g/ha
Outline: as §2

Chenopodium album = test: as above; conditions: application to foliage, application herbicide amount 320 g/ha
Outline: as §2

Digitaria ciliaris = test: as above; conditions: application to foliage, application herbicide amount 320 g/ha
Outline: as §2

[2] = test system: Echinochloa crus-galli var. crus-galli; test: as above; conditions: application to foliage, application herbicide amount 320 g/ha
Outline: as §2

Galium spurium = test: as above; conditions: application to foliage, application herbicide amount 320 g/ha
Outline: as §2

Lolium multiflorum Lam. = test: as above; conditions: application to foliage, application herbicide amount 320 g/ha
Outline: as §2

Setaria viridis = test: as above; conditions: application to foliage, application herbicide amount 320 g/ha
Outline: as §2

Veronica persica = test: as above; conditions: application to foliage, application herbicide amount 320 g/ha
Outline: as §2

| Structure (SMILES) | A: Echinochloa oryzicola Vasing. (herbicidal effect grade) [1] | C: Monochoria vaginalis (herbicidal effect grade) (Monochoria vaginalis) | B: Scirpus juncoides (herbicidal effect grade) (Scirpus juncoides) | M (Abutilon theophrasti) herbicidal effect (Abutilon theophrasti) | J (Alopecurus myosuroides) herbicidal effect (Alopecurus myosuroides) | L (Apera spica-venti.) herbicidal effect (Apera spica-venti.) | I (Avena fatua) herbicidal effect (Avena fatua) | O (Chenopodium album) herbicidal effect (Chenopodium album) | F (Digitaria ciliaris) herbicidal effect (Digitaria ciliaris) | H (Echinochloa crus-galli var. crus-galli) herbicidal effect [2] | Q (Galium spurium) herbicidal effect (Galium spurium) | K (Lolium multiflorum Lam.) herbicidal effect (Lolium multiflorum Lam.) | G (Setaria viridis) herbicidal effect (Setaria viridis) | R (Veronica persica) herbicidal effect (Veronica persica) |
| --- | --- | --- | --- | --- | --- | --- | --- | --- | --- | --- | --- | --- | --- | --- |
| COc1ccccc1-c1nnc2c(C(=O)Nc3nnc(C)o3)ccc(C(F)(F)F)n12 [1-047] | 4 (Herbicidal ratio of 70% or more and less than 90%) | 2 (Herbicidal ratio of 20% or more and less than 40%) | 3 (Herbicidal ratio of 40% or more and less than 70%) | 5 (Herbicidal ratio of 90% or more (almost completely withered)) | 0 (Herbicidal ratio of 5% or less (almost no effect)) | 1 (Herbicidal ratio of 5% or more and less than 20%) | 1 (Herbicidal ratio of 5% or more and less than 20%) | 5 (Herbicidal ratio of 90% or more (almost completely withered)) | 4 (Herbicidal ratio of 70% or more and less than 90%) | 5 (Herbicidal ratio of 90% or more (almost completely withered)) | 2 (Herbicidal ratio of 20% or more and less than 40%) | 0 (Herbicidal ratio of 5% or less (almost no effect)) | 4 (Herbicidal ratio of 70% or more and less than 90%) | 4 (Herbicidal ratio of 70% or more and less than 90%) |
| Cc1nnc(NC(=O)c2ccc(C(F)(F)F)n3c(CC(=O)O)nnc23)o1 [1-048] | 3 (Herbicidal ratio of 40% or more and less than 70%) | 0 (Herbicidal ratio of 5% or less (almost no effect)) | 0 (Herbicidal ratio of 5% or less (almost no effect)) | 5 (Herbicidal ratio of 90% or more (almost completely withered)) | 1 (Herbicidal ratio of 5% or more and less than 20%) | 2 (Herbicidal ratio of 20% or more and less than 40%) | 2 (Herbicidal ratio of 20% or more and less than 40%) | 5 (Herbicidal ratio of 90% or more (almost completely withered)) | 5 (Herbicidal ratio of 90% or more (almost completely withered)) | 5 (Herbicidal ratio of 90% or more (almost completely withered)) | 3 (Herbicidal ratio of 40% or more and less than 70%) | 1 (Herbicidal ratio of 5% or more and less than 20%) | 3 (Herbicidal ratio of 40% or more and less than 70%) | 4 (Herbicidal ratio of 70% or more and less than 90%) |
| Cc1nnc(NC(=O)c2ccc(C(F)(F)F)n3c(CC(=O)OC(C)C)nnc23)o1 [1-049] | 5 (Herbicidal ratio of 90% or more (almost completely withered)) | 0 (Herbicidal ratio of 5% or less (almost no effect)) | 2 (Herbicidal ratio of 20% or more and less than 40%) | 5 (Herbicidal ratio of 90% or more (almost completely withered)) | 2 (Herbicidal ratio of 20% or more and less than 40%) | 3 (Herbicidal ratio of 40% or more and less than 70%) | 0 (Herbicidal ratio of 5% or less (almost no effect)) | 5 (Herbicidal ratio of 90% or more (almost completely withered)) | 5 (Herbicidal ratio of 90% or more (almost completely withered)) | 5 (Herbicidal ratio of 90% or more (almost completely withered)) | 3 (Herbicidal ratio of 40% or more and less than 70%) | 2 (Herbicidal ratio of 20% or more and less than 40%) | 4 (Herbicidal ratio of 70% or more and less than 90%) | 4 (Herbicidal ratio of 70% or more and less than 90%) |
| CC(C)c1nnc2c(C(=O)Nc3nnco3)ccc(C(F)(F)F)n12 [1-050] | 5 (Herbicidal ratio of 90% or more (almost completely withered)) | 4 (Herbicidal ratio of 70% or more and less than 90%) | 5 (Herbicidal ratio of 90% or more (almost completely withered)) | 5 (Herbicidal ratio of 90% or more (almost completely withered)) | 2 (Herbicidal ratio of 20% or more and less than 40%) | 3 (Herbicidal ratio of 40% or more and less than 70%) | 3 (Herbicidal ratio of 40% or more and less than 70%) | 5 (Herbicidal ratio of 90% or more (almost completely withered)) | 5 (Herbicidal ratio of 90% or more (almost completely withered)) | 5 (Herbicidal ratio of 90% or more (almost completely withered)) | 2 (Herbicidal ratio of 20% or more and less than 40%) | 3 (Herbicidal ratio of 40% or more and less than 70%) | 4 (Herbicidal ratio of 70% or more and less than 90%) | 5 (Herbicidal ratio of 90% or more (almost completely withered)) |
| CC(C)c1nnc2c(C(=O)Nc3nnc(C4CC4)o3)ccc(C(F)(F)F)n12 [1-051] | 5 (Herbicidal ratio of 90% or more (almost completely withered)) | 4 (Herbicidal ratio of 70% or more and less than 90%) | 4 (Herbicidal ratio of 70% or more and less than 90%) | 5 (Herbicidal ratio of 90% or more (almost completely withered)) | 0 (Herbicidal ratio of 5% or less (almost no effect)) | 1 (Herbicidal ratio of 5% or more and less than 20%) | 1 (Herbicidal ratio of 5% or more and less than 20%) | 5 (Herbicidal ratio of 90% or more (almost completely withered)) | 3 (Herbicidal ratio of 40% or more and less than 70%) | 4 (Herbicidal ratio of 70% or more and less than 90%) | 2 (Herbicidal ratio of 20% or more and less than 40%) | 1 (Herbicidal ratio of 5% or more and less than 20%) | 3 (Herbicidal ratio of 40% or more and less than 70%) | 3 (Herbicidal ratio of 40% or more and less than 70%) |

— patent US9708314B2, “Heterocyclic amide compound” (NISSAN CHEMICAL INDUSTRIES, LTD., priority 2013, dated 2017)
